Target: FASN enzyme (Homo sapiens, UniProt P49327)
Test: Enzymatic Assay for FASN Inhibitors
Assay type: biochemical
Conditions: not given
How it was run: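 40 nM FASN preincubated with compound 60 min at 25° C in HEPES pH 7.3 buffer with 0.04% Triton X-100. Then 20 μM acetyl-CoA, 60 μM malonyl-CoA and 100 μM NADPH added for 90 min, quenched with CPM thiol probe; fluorescence 360/530 nm, IC50 by four-parameter fit.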

Chain of FASN enzyme (P49327 whole entry): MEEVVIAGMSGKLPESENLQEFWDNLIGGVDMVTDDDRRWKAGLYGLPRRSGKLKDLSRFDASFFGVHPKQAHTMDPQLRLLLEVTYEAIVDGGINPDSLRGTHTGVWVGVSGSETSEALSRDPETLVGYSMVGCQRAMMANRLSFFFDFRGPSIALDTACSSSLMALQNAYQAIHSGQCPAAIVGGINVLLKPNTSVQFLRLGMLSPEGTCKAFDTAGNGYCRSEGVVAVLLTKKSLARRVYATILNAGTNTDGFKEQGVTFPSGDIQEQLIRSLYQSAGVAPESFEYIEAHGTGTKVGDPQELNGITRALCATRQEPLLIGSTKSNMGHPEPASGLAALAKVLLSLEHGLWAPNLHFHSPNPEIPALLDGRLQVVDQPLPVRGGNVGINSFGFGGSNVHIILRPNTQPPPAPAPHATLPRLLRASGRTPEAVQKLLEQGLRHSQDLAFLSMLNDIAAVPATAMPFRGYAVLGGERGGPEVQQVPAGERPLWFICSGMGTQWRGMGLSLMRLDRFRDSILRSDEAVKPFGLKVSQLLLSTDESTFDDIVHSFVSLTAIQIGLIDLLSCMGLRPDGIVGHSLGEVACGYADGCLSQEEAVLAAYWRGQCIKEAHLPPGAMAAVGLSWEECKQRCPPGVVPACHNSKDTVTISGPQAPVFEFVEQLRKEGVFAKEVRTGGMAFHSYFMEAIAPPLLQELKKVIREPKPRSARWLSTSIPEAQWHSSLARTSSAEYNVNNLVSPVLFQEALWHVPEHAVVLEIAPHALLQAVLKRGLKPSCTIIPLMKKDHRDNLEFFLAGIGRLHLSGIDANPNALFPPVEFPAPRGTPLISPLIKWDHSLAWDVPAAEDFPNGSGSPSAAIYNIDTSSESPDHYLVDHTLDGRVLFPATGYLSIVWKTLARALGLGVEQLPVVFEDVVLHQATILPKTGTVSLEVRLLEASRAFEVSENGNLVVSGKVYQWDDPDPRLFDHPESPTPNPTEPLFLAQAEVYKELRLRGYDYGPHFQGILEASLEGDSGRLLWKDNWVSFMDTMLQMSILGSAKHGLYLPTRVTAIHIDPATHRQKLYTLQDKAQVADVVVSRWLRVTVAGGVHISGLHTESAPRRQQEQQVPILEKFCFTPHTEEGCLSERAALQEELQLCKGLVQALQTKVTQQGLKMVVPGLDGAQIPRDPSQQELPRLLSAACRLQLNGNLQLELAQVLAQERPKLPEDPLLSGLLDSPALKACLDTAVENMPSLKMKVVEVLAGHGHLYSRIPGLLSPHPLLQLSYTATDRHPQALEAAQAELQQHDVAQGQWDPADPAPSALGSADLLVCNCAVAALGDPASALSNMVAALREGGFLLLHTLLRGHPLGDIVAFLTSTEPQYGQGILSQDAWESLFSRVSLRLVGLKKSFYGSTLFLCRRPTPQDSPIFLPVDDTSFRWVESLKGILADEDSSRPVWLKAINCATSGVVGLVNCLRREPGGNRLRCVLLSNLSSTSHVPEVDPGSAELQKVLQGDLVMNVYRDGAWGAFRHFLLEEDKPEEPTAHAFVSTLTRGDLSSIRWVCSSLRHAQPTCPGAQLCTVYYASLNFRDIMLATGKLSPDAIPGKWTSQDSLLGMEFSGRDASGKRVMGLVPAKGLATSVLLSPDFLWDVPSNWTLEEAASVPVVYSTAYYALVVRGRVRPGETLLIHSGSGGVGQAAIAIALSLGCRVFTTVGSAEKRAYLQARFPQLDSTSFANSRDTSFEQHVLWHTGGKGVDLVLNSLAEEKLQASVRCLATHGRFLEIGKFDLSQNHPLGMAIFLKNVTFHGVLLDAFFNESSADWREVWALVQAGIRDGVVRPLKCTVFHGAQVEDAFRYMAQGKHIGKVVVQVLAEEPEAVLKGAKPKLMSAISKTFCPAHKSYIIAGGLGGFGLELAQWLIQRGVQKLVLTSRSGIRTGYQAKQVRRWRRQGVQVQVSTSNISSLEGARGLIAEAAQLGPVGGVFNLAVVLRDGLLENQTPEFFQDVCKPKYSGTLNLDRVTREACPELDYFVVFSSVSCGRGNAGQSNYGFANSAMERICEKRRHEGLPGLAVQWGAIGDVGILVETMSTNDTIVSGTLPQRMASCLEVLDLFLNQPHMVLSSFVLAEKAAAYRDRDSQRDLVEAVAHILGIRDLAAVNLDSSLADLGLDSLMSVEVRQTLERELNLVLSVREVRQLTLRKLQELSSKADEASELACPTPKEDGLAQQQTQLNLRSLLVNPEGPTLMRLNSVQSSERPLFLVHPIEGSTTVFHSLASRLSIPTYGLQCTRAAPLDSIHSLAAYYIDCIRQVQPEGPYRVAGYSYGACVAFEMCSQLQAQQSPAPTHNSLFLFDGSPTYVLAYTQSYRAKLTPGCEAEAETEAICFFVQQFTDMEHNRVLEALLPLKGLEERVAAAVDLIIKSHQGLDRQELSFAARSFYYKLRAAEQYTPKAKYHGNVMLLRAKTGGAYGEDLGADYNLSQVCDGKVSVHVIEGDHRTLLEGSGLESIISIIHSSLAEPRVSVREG

`O=C(c1ccc(-c2cc(Cl)ccc2F)cc1Cl)N1CCN(C(=O)C2(O)CC2)CC1` [1-{4-[2-chloro-4-(5-chloro-2-fluorophenyl)benzoyl]piperazine-1-carbonyl}cyclopropan-1-ol] was tested. Which IC50 did it give?
The IC50 was < 500 nM.

Which IC50 does the source give for `C[C@@H]1CN(C(=O)C2(O)CC2)CCN1C(=O)c1ccc(-c2ccc(Cl)cc2F)cc1` here?
The IC50 was < 500 nM.

Which IC50 does the source give for `O=C(c1ccc(-c2cccc3ocnc23)cc1)N1CCN(C(=O)C2(O)CC2)CC1` [1-[(4-{[4-(1,3-benzoxazol-4-yl)phenyl]carbonyl}piperazin-1-yl)carbonyl]cyclopropan-1-ol] here?
The IC50 was < 500 nM.

Which IC50 does the source give for `Cn1ncc2ccc(-c3ccc(C(=O)N4CCN(C(=O)C5(N)CCC5)CC4)c(F)c3)cc21` [1-{4-[2-fluoro-4-(1-methyl-1H-indazol-6-yl)benzoyl]piperazine-1-carbonyl}cyclobutan-1-amine] here?
Its IC50 is < 500 nM.

Which IC50 does the source give for `O=C(c1ccc(-c2ccc3cc(F)ccc3n2)c(F)c1F)N1CCN(C(=O)C2(O)CC2)CC1` [1-[(4-{[2,3-difluoro-4-(6-fluoroquinolin-2-yl)phenyl]carbonyl}piperazin-1-yl)carbonyl]cyclopropan-1-ol] here?
Its IC50 is < 500 nM.

How did the IC50 turn out when `Cn1cnc2cc(-c3cc(F)c(C(=O)N4CCN(C(=O)C5(O)CC5)CC4)c(F)c3)ccc21` [1-{4-[2,6-difluoro-4-(1-methyl-1H-1,3-benzodiazol-5-yl)benzoyl]piperazine-1-carbonyl}cyclopropan-1-ol] was run?
Its IC50 is < 500 nM.

With `Cn1ncc2ccc(-c3ccc(C(=O)N4CCN(C(=O)C5(O)CC5)CC4)cc3Cl)cc21` [1-{4-[3-chloro-4-(1-methyl-1H-indazol-6-yl)benzoyl]piperazine-1-carbonyl}cyclopropan-1-ol] as the compound, how does the IC50 read?
The IC50 was < 500 nM.

`Cn1cc2ccc(-c3ccc(C(=O)N4CCN(C(=O)C5(O)CC5)CC4)cc3Cl)cc2n1` [1-{4-[3-chloro-4-(2-methyl-2H-indazol-6-yl)benzoyl]piperazine-1-carbonyl}cyclopropan-1-ol] was tested. Which IC50 did it give?
Its IC50 is < 500 nM.

`Cn1cnc2cc(-c3ccc(C(=O)N4CCN(C(=O)C5(O)CC5)[C@@H](CO)C4)cc3)ccc21` [1-[(2R)-2-(hydroxymethyl)-4-[4-(1-methyl-1H-1,3-benzodiazol-5-yl)benzoyl]piperazine-1-carbonyl]cyclopropan-1-ol] was tested. Which IC50 did it give?
The IC50 was < 500 nM.

For `O=C(NC1CC1)c1cccc(-c2ccc(C(=O)N3CCN(C(=O)C4(O)CC4)CC3)cc2)c1` [N-cyclopropyl-3-[4-({4-[(1-hydroxycyclopropyl)carbonyl]piperazin-1-yl}carbonyl)phenyl]benzamide], which IC50 is on record?
Its IC50 is < 500 nM.

With `C[C@@H]1CN(C(=O)c2ccc(-c3ccc4c(c3)ncn4C)cc2)CCN1C(=O)C1(O)CC1` [1-[(2R)-2-methyl-4-[4-(1-methyl-1H-1,3-benzodiazol-5-yl)benzoyl]piperazine-1-carbonyl]cyclopropan-1-ol] as the compound, how does the IC50 read?
The IC50 was < 500 nM.

For `O=C(c1ccc(N2CCc3cccnc3C2)cc1F)N1CCN(C(=O)C2(O)CC2)CC1` [1-{4-[2-fluoro-4-(5,6,7,8-tetrahydro-1,7-naphthyridin-7-yl)benzoyl]piperazine-1-carbonyl}cyclopropan-1-ol], which IC50 is on record?
Its IC50 is < 500 nM.

`C[C@H]1CN(C(=O)c2ccc(-c3nc4ccc(Cl)cc4o3)cc2)CCN1C(=O)C1(O)CC1` [1-[(2S)-4-[4-(6-chloro-1,3-benzoxazol-2-yl)benzoyl]-2-methylpiperazine-1-carbonyl]cyclopropan-1-ol] was tested. Which IC50 did it give?
The IC50 was < 500 nM.

With `C[C@H]1CN(C(=O)c2ccc(-c3ccc4cnn(C)c4c3)cc2)CCN1C(=O)C1(O)CC1` [1-[(2S)-2-methyl-4-[4-(1-methyl-1H-indazol-6-yl)benzoyl]piperazine-1-carbonyl]cyclopropan-1-ol] as the compound, how does the IC50 read?
The IC50 was < 500 nM.

`Cn1nc(O)c2ccc(-c3ccc(C(=O)N4CCN(C(=O)C5(O)CC5)CC4)cc3)cc21` [6-{4-[4-(1-hydroxycyclopropanecarbonyl)piperazine-1-carbonyl]phenyl}-1-methyl-1H-indazol-3-ol] was tested. Which IC50 did it give?
The IC50 was < 500 nM.

`COc1ccc(OC(F)(F)F)cc1-c1ccc(C(=O)N2CCN(C(=O)C3(O)CC3)CC2)cc1` was tested. Which IC50 did it give?
Its IC50 is < 500 nM.

Which IC50 does the source give for `O=C(c1ccc(-c2cccc(NS(=O)(=O)CC3CCC3)c2)cc1)N1CCN(C(=O)C2(O)CC2)CC1` [1-cyclobutyl-N-(3-{4-[4-(1-hydroxycyclopropanecarbonyl)piperazine-1-carbonyl]phenyl}phenyl)methanesulfonamide] here?
The IC50 was < 500 nM.

`O=C(c1ccc(N2Cc3cccc(F)c3C2)cc1)N1CCN(C(=O)C2(O)CC2)CC1` [1-{4-[4-(4-fluoro-2,3-dihydro-1H-isoindol-2-yl)benzoyl]piperazine-1-carbonyl}cyclopropan-1-ol] was tested. Which IC50 did it give?
The IC50 was < 500 nM.

How did the IC50 turn out when `O=C(c1ccc(-c2cccc(Cl)c2Cl)cc1)N1CCN(C(=O)C2(O)CC2)CC1` [1-[(4-{[4-(2,3-dichlorophenyl)phenyl]carbonyl}piperazin-1-yl)carbonyl]cyclopropan-1-ol] was run?
Its IC50 is < 500 nM.

How did the IC50 turn out when `O=C(c1ccc(-n2ccc3ccccc32)cc1)N1CCN(C(=O)C2(O)CC2)CC1` [1-{4-[4-(1H-indol-1-yl)benzoyl]piperazine-1-carbonyl}cyclopropan-1-ol] was run?
The IC50 was < 500 nM.

Which IC50 does the source give for `N#CC1(c2cccc(-c3ccc(C(=O)N4CCN(C(=O)C5(O)CC5)CC4)cc3)c2)CC1` here?
The IC50 was < 500 nM.

How did the IC50 turn out when `O=C(c1ccc(-c2cccc(N3CCCC3=O)c2)cc1)N1CCN(C(=O)C2(O)CC2)CC1` [1-(3-{4-[4-(1-hydroxycyclopropanecarbonyl)piperazine-1-carbonyl]phenyl}phenyl)pyrrolidin-2-one] was run?
Its IC50 is < 500 nM.

Which IC50 does the source give for `Cc1nc2cc(Cl)cc(-c3ccc(C(=O)N4CCN(C(=O)C5(O)CC5)CC4)cc3)c2[nH]1` here?
Its IC50 is < 500 nM.

`O=C(Nc1cccc(-c2ccc(C(=O)N3CCN(C(=O)C4(O)CC4)CC3)cc2)c1)C1CC(F)(F)C1` [3,3-difluoro-N-(3-{4-[4-(1-hydroxycyclopropanecarbonyl)piperazine-1-carbonyl]phenyl}phenyl)cyclobutane-1-carboxamide] was tested. Which IC50 did it give?
The IC50 was < 500 nM.

Which IC50 does the source give for `O=C(c1ccc(-c2cc3[nH]nnc3cc2F)cc1)N1CCN(C(=O)C2(O)CC2)CC1` here?
The IC50 was < 500 nM.

`CN1C(=O)Cc2c(-c3ccc(C(=O)N4CCN(C(=O)C5(O)CC5)CC4)cc3)cccc21` [4-{4-[4-(1-hydroxycyclopropanecarbonyl)piperazine-1-carbonyl]phenyl}-1-methyl-2,3-dihydro-1H-indol-2-one] was tested. Which IC50 did it give?
Its IC50 is < 500 nM.

How did the IC50 turn out when `O=C(c1ccc(-c2cc3ccccc3[nH]2)cc1)N1CCN(C(=O)C2(O)CC2)CC1` [1-[(4-{[4-(1H-indol-2-yl)phenyl]carbonyl}piperazin-1-yl)carbonyl]cyclopropan-1-ol] was run?
The IC50 was < 500 nM.

With `O=C(c1ccc(N2CCc3sccc3C2)cc1)N1CCN(C(=O)C2(O)CC2)CC1` [1-[4-(4-{4H,5H,6H,7H-thieno[3,2-c]pyridin-5-yl}benzoyl)piperazine-1-carbonyl]cyclopropan-1-ol] as the compound, how does the IC50 read?
Its IC50 is < 500 nM.

`Cn1ncc2ccc(-c3ccc(C(=O)N4CCN(C(=O)C5(O)CC5)CC4)c(F)c3)cc21` [1-{4-[2-fluoro-4-(1-methyl-1H-indazol-6-yl)benzoyl]piperazine-1-carbonyl}cyclopropan-1-ol] was tested. Which IC50 did it give?
The IC50 was < 500 nM.

Which IC50 does the source give for `O=C(c1ccc(-c2ccc3[nH]c(=O)ccc3c2)cc1)N1CCN(C(=O)C2(O)CC2)CC1` here?
Its IC50 is < 500 nM.

Same assay, conditions: FASN enzymatic assay; Table 2-2

How did the IC50 turn out when `O=C(c1ccc(-c2ccnc3cc(C(F)(F)F)ccc23)cc1)N1CCN(C(=O)C2(O)CC2)CC1` [1-{[4-({4-[7-(trifluoromethyl)quinolin-4-yl]phenyl}carbonyl)piperazin-1-yl]carbonyl}cyclopropan-1-ol] was run?
The IC50 was 500 to 5000 nM.

For `O=C(c1ncc(-c2ccc3ncccc3c2)cn1)N1CCN(C(=O)C2(O)CC2)CC1` [1-[(4-{[5-(quinolin-6-yl)pyrimidin-2-yl]carbonyl}piperazin-1-yl)carbonyl]cyclopropan-1-ol], which IC50 is on record?
Its IC50 is 500 to 5000 nM.

Which IC50 does the source give for `O=C(c1ccc(-c2cccc(C(F)(F)F)c2F)cc1)N1CCN(C(=O)C2(O)CC2)CC1` [1-{[4-({4-[2-fluoro-3-(trifluoromethyl)phenyl]phenyl}carbonyl)piperazin-1-yl]carbonyl}cyclopropan-1-ol] here?
Its IC50 is 500 to 5000 nM.

With `O=C(c1ccc(-c2ccccc2)cc1)N1CCN(C(=O)C2(O)CCC2)CC1` [1-({4-[(4-phenylphenyl)carbonyl]piperazin-1-yl}carbonyl)cyclobutan-1-ol] as the compound, how does the IC50 read?
The IC50 was 500 to 5000 nM.

For `O=C(c1ccc(-c2ccc3nonc3c2)cc1)N1CCN(C(=O)C2(O)CC2)CC1` [1-[(4-{[4-(2,1,3-benzoxadiazol-5-yl)phenyl]carbonyl}piperazin-1-yl)carbonyl]cyclopropan-1-ol], which IC50 is on record?
Its IC50 is 500 to 5000 nM.

How did the IC50 turn out when `Cc1nc(-c2cnc3ccccc3c2)sc1C(=O)N1CCN(C(=O)C2(O)CC2)CC1` [1-[(4-{[4-methyl-2-(quinolin-3-yl)-1,3-thiazol-5-yl]carbonyl}piperazin-1-yl)carbonyl]cyclopropan-1-ol] was run?
Its IC50 is 500 to 5000 nM.

How did the IC50 turn out when `O=C(c1cnc(-c2ccc3ncccc3c2)cn1)N1CCN(C(=O)C2(O)CC2)CC1` [1-[(4-{[5-(quinolin-6-yl)pyrazin-2-yl]carbonyl}piperazin-1-yl)carbonyl]cyclopropan-1-ol] was run?
The IC50 was 500 to 5000 nM.

For `O=C(c1ccc(-c2ccc3ncccc3c2)nc1)N1CCN(C(=O)C2(O)CC2)CC1` [1-[(4-{[6-(quinolin-6-yl)pyridin-3-yl]carbonyl}piperazin-1-yl)carbonyl]cyclopropan-1-ol], which IC50 is on record?
Its IC50 is 500 to 5000 nM.

Same assay, conditions: FASN enzymatic assay; Table 2-3

With `Cc1ccc(-c2ccc(C(=O)N3CCN(C(=O)C4(O)CC4)CC3)cc2)cn1` [1-[(4-{[4-(6-methylpyridin-3-yl)phenyl]carbonyl}piperazin-1-yl)carbonyl]cyclopropan-1-ol] as the compound, how does the IC50 read?
The IC50 was ≥ 5000 nM.

With `COc1ccc(-c2ccc(C(=O)N3CCN(C(=O)C4(O)CC4)CC3)cc2)c(Cl)c1` [1-[(4-{[4-(2-chloro-4-methoxyphenyl)phenyl]carbonyl}piperazin-1-yl)carbonyl]cyclopropan-1-ol] as the compound, how does the IC50 read?
Its IC50 is ≥ 5000 nM.

Which IC50 does the source give for `N#Cc1cc(F)ccc1-c1ccc(C(=O)N2CCN(C(=O)C3(O)CC3)CC2)cc1` [5-fluoro-2-[4-({4-[(1-hydroxycyclopropyl)carbonyl]piperazin-1-yl}carbonyl)phenyl]benzonitrile] here?
The IC50 was ≥ 5000 nM.

How did the IC50 turn out when `CC(C)(O)C(=O)N1CCN(C(=O)c2ccc(-c3ccccc3)cc2)CC1` [2-hydroxy-2-methyl-1-{4-[(4-phenylphenyl)carbonyl]piperazin-1-yl}propan-1-one] was run?
The IC50 was ≥ 5000 nM.

From US10457655B2, “Compounds and compositions for inhibition of FASN” (FORMA Therapeutics, Inc., priority 2013, dated 2019)
